# Measurements published in patent US8524696B2, “Water-soluble compositions of bioactive lipophilic compounds” (priority 1999, dated 2013).
# Experiments:
# [1] = Storage stability of water-soluble compositions and their aqueous solutions; format: physicochemical; conditions: in water or saline; refrigerated or frozen as stated
# [2] = test system: Human teratocarcinoma NT2; assay: Protection against hypoxia, cell viability by trypan blue exclusion; format: cell-based; conditions: 10 mg/ml as PTS formulation, 3 days; 17.5 hours anaerobic, glucose-free
# Protocol: The flasks were sealed in an anaerobic chamber containing Gas Pak Plus gas generator envelopes and were incubated in the anaerobic conditions at 37° C. for 17.5 hours in glucose-free medium. Following the hypoxic treatment the cells were placed again in the complete medium (with and without CoQ10 or vitamin E) and were analysed either immediately (time 0) or were cultured for the additional 24 hr under the normoxic conditions. Cell viability was measured by trypan blue exclusion assay. […]
# [3] = test system: spontaneously hypertensive rats (SHR); assay: Ischemia/reperfusion, middle cerebral artery occlusion model (MCAO), TTC staining; format: in vivo, rat; conditions: CoQ10 treatment postischemically
# [4] = test system: red blood cells (RBC) isolated from Balb/c mice; assay: In vitro haemolysis of red blood cells (RBC); format: cell-based, mouse; conditions: 0.3% Triton X-100, 1 h at 37° C., taken as 100% haemolysis (Table 17 reference column)
# [5] = Systemic release of vitamin E following administration of PTS (plasma alpha-tocopherol by HPLC); format: in vivo, Sprague Dawley male rats; conditions: for Concentration of α-tocopherol in rat blood plasma: PTS 50 mg/kg
# Protocol: PTS, dissolved in water (50 mg/ml), was administered to Sprague Dawley male rats (300-350 g) either orally or intravenously at a dose of 50 mg/kg body weight. Heparinized blood samples were collected at 0, 3, 8 and 24 hr following PTS administration. Blood plasma samples were obtained and analyzed for the content of alpha-tocopherol using an HPLC method using a Supercosil DB column and a mobile phase of ethanol:methanol (80:20 v/v) at a flow rate of 1 ml/min. Beckman System Karat software was used for data quantification.
compound,measurement,setting,value
CC1=C(/C=C/C(C)=C/C=C/C(C)=C/C=C/C=C(C)/C=C/C=C(C)/C=C/C2=C(C)C(=O)[C@@H](O)CC2(C)C)C(C)(C)C[C@H](O)C1=O [Astaxanthin],stability of aqueous solutions,[1],remained stable for several months
"COC1=C(OC)C(=O)C(C/C=C(\C)CC/C=C(\C)CC/C=C(\C)CC/C=C(\C)CC/C=C(\C)CC/C=C(\C)CC/C=C(\C)CC/C=C(\C)CC/C=C(\C)CCC=C(C)C)=C(C)C1=O [CoQ10, Coenzyme Q10]",percentage of death during the 24 hr recovery period from hypoxia,[2],reduced by half
same,protective effects against ischemia-induced tissue damage,[3],clearly evident
"Cc1c(C)c2c(c(C)c1O)CC[C@@](C)(CCC[C@H](C)CCC[C@H](C)CCCC(C)C)O2 [Vitamin E, α-(+)-tocopherol]",percentage of death during the 24 hr recovery period from hypoxia,[2],reduced by half
Triton X-100,Percentage of lysed Cells,[4],100.0%
polyoxyethanyl-α-tocopheryl sebacate [PTS],Concentration of α-tocopherol in rat blood plasma,"[5]; Intravenous administration, 3 hours",18.48 ± 2.40 (n = 3) μg/ml
same,Concentration of α-tocopherol in rat blood plasma,"[5]; Intravenous administration, 8 hours",11.19 ± 3.11 (n = 3) μg/ml
same,Concentration of α-tocopherol in rat blood plasma,"[5]; Intravenous administration, 24 hours",10.59 ± 1.48 (n = 3) μg/ml
same,Concentration of α-tocopherol in rat blood plasma,"[5]; Oral administration, 3 hours",8.65 ± 1.40 (n = 3) μg/ml
same,Concentration of α-tocopherol in rat blood plasma,"[5]; Oral administration, 8 hours",9.33 ± 2.10 (n = 3) μg/ml
same,Concentration of α-tocopherol in rat blood plasma,"[5]; Oral administration, 24 hours",8.31 ± 0.60 (n = 3) μg/ml
same,plasma content of α-tocopherol after PTS (systemic conversion to vitamin E),"[5]; oral or intravenous PTS, rat",Elevated
